# From ChEMBL document CHEMBL1201862, “PubChem BioAssay data set” (2004)
# Active and inactive are the calls of the source.
# What was measured:
# [1] = target: Serine/threonine-protein kinase pim-3 (Homo sapiens, UniProt Q86V86); format: functional;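 also: value obtained as one member of a broad kinase panel profiling effort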
# Misshapen-like kinase 1 = Misshapen-like kinase 1 (Homo sapiens, UniProt Q8N4C8); format: functional;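 also: kinome panel screen with MINK as the panel member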
# [2] = target: Mitogen-activated protein kinase kinase kinase kinase 4 (Homo sapiens, UniProt O95819); format: functional
# [3] = target: MAP kinase-activated protein kinase 2 (Homo sapiens, UniProt P49137); format: functional;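 also: measured as one member of a kinome-wide kinase panel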
# Cytochrome P450 3A4 = Cytochrome P450 3A4 (Homo sapiens, UniProt P08684); conditions: Potency;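 also: confirmatory qHTS run detecting inhibitors and substrates of CYP3A4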
# [4] = target: T1, Botulinum neurotoxin type A (Clostridium botulinum (strain Hall / ATCC 3502 / NCTC 13319 / Type A), UniProt P0DPI1); experiment: High-throughput multiplex microsphere dose response for inhibitors of toxin protease, specifically Botulinum neurotoxin light chain A protease, compounds from Powder Set 01.; format: functional, Clostridium botulinum A str. ATCC 3502; conditions: read-out: EC50_MICROM
# [5] = target: T1, Botulinum neurotoxin type A; experiment: High-throughput multiplex microsphere dose response for inhibitors of toxin protease, specifically Botulinum neurotoxin light chain A protease, compounds from Cherry Pick 01.; format: functional; conditions: read-out: EC50_MICROM
# Lethal factor = Lethal factor (Bacillus anthracis, UniProt P15917); experiment: High-throughput multiplex microsphere dose response for inhibitors of toxin protease, specifically Lethal Factor protease, compounds from Powder Set 01.; format: functional, Bacillus anthracis str. A2012; conditions: read-out: EC50_MICROM
# [6] = target: T1, Botulinum neurotoxin type A; experiment: Confirmatory FRET assay using full length substrates for Botulinum neurotoxin light chain A protease, with Powder Set01.; format: functional
# [7] = target: Cyclin-dependent kinase 19 (Homo sapiens, UniProt Q9BWU1); experiment: Navigating the Kinome. Panel member name: CDC2L6; format: functional
# [8] = target: Cell division cycle 7-related protein kinase (Homo sapiens, UniProt O00311); format: functional;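 also: value obtained from a kinome-wide kinase panel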
# [9] = target: Dual specificity tyrosine-phosphorylation-regulated kinase 1B (Homo sapiens, UniProt Q9Y463); experiment: Navigating the Kinome. Panel member name: DYRK1B; format: functional
# [10] = target: Hepatocyte growth factor receptor (Homo sapiens, UniProt P08581); format: functional;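 also: kinase panel profiling across the kinome, with MET as the panel member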
# [11] = target: Mitogen-activated protein kinase kinase kinase kinase 2 (Homo sapiens, UniProt Q12851); format: functional;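 also: measured as one member of a kinome-wide kinase panel, with MAP4K2 as the panel entry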
# [12] = target: Tyrosine-protein kinase JAK2 (Homo sapiens, UniProt O60674); format: functional;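 also: JAK2 tested as one member of a kinase panel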
# [13] = target: ALK tyrosine kinase receptor (Homo sapiens, UniProt Q9UM73); format: functional;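 also: ALK tested as one member of a kinase panel screen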
# [14] = target: Receptor-type tyrosine-protein kinase FLT3 (Homo sapiens, UniProt P36888); format: functional;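 also: FLT3 was tested as one member of a kinome-wide kinase panel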
# [15] = target: Serine/threonine-protein kinase D3 (Homo sapiens, UniProt O94806); format: functional;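 also: determined within a kinase panel screen, with PRKCN as the panel member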
# [16] = target: Casein kinase I isoform alpha (Homo sapiens, UniProt P48729); format: functional
# [17] = target: Calcium/calmodulin-dependent protein kinase type II subunit alpha (Homo sapiens, UniProt Q9UQM7); experiment: Navigating the Kinome. Panel member name: CAMK2A; format: functional
# [18] = target: Cyclin-dependent kinase 8 (Homo sapiens, UniProt P49336); experiment: Navigating the Kinome. Panel member name: CDK8; format: functional
# [19] = target: Tyrosine-protein kinase Lck (Homo sapiens, UniProt P06239); format: functional;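 also: lck was assayed as one member of a kinase panel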
# [20] = target: Mitogen-activated protein kinase 8 (Homo sapiens, UniProt P45983); format: functional;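 also: value comes from one member of a kinome-wide kinase profiling panel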
# [21] = target: cAMP-dependent protein kinase catalytic subunit PRKX (Homo sapiens, UniProt P51817); format: functional
# [22] = target: Inhibitor of nuclear factor kappa-B kinase subunit epsilon (Homo sapiens, UniProt Q14164); experiment: Navigating the Kinome. Panel member name: IKBKE; format: functional
# [23] = target: Tyrosine-protein kinase Fyn (Homo sapiens, UniProt P06241); format: functional
# [24] = target: Dual specificity protein kinase CLK4 (Homo sapiens, UniProt Q9HAZ1); format: functional
# Activated CDC42 kinase 1 = Activated CDC42 kinase 1 (Homo sapiens, UniProt Q07912); experiment: Navigating the Kinome. Panel member name: ACK1; format: functional
# [25] = target: Rho-associated protein kinase 1 (Homo sapiens, UniProt Q13464); format: functional;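 also: measured within a broad kinome-wide panel profiling many kinases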
# [26] = target: Cyclin-dependent kinase 7 (Homo sapiens, UniProt P50613); format: functional;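 also: value comes from a kinome-wide kinase profiling panel in which CDK7 is one member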
# [27] = target: Dual specificity tyrosine-phosphorylation-regulated kinase 1A (Homo sapiens, UniProt Q13627); format: functional;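 also: measured against DYRK1A as one member of a broad kinome profiling panel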
# [28] = target: Macrophage-stimulating protein receptor (Homo sapiens, UniProt Q04912); experiment: Navigating the Kinome. Panel member name: MST1R; format: functional
# [29] = target: Dual specificity mitogen-activated protein kinase kinase 1 (Homo sapiens, UniProt Q02750); experiment: Navigating the Kinome. Panel member name: MAP2K1; format: functional
# [30] = target: Serine/threonine-protein kinase PAK 4 (Homo sapiens, UniProt O96013); format: functional;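 also: value obtained within a kinome profiling panel in which PAK4 was one of the panel members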
# Focal adhesion kinase 1 = Focal adhesion kinase 1 (Homo sapiens, UniProt Q05397); format: functional;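 also: measured as one member of a kinome panel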
# [31] = target: Leukocyte tyrosine kinase receptor (Homo sapiens, UniProt P29376); experiment: Navigating the Kinome. Panel member name: LTK; format: functional
# [32] = target: Fibroblast growth factor receptor 1 (Homo sapiens, UniProt P11362); format: functional
# [33] = target: Dual specificity mitogen-activated protein kinase kinase 2 (Homo sapiens, UniProt P36507); experiment: Navigating the Kinome. Panel member name: MAP2K2; format: functional
# [34] = target: Tyrosine-protein kinase BTK (Homo sapiens, UniProt Q06187); format: functional
# [35] = target: Proto-oncogene tyrosine-protein kinase receptor Ret (Homo sapiens, UniProt P07949); format: functional;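 also: measured within a kinome-wide profiling panel, RET as the panel member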
# [36] = target: Serine/threonine-protein kinase TAO1 (Homo sapiens, UniProt Q7L7X3); format: functional
# [37] = target: Mitogen-activated protein kinase 14 (Homo sapiens, UniProt Q16539); format: functional;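 also: part of a kinome-wide panel, MAPK14 entry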
# [38] = target: Vascular endothelial growth factor receptor 2 (Homo sapiens, UniProt P35968); format: functional
# [39] = target: Serine/threonine-protein kinase pim-1 (Homo sapiens, UniProt P11309); format: functional
# [40] = target: Tyrosine-protein kinase JAK3 (Homo sapiens, UniProt P52333); format: functional
# [41] = target: Glycogen synthase kinase-3 beta (Homo sapiens, UniProt P49841); format: functional;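 also: value comes from a broad kinome profiling panel, with GSK3B as the panel member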
# [42] = target: Dual specificity protein kinase CLK2 (Homo sapiens, UniProt P49760); format: functional
# [43] = target: Macrophage colony-stimulating factor 1 receptor (Homo sapiens, UniProt P07333); format: functional;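 also: value comes from the Navigating the Kinome screening panel, CSF1R member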
# [44] = target: Leucine-rich repeat serine/threonine-protein kinase 2 (Homo sapiens, UniProt Q5S007); format: functional;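 also: value from a broad kinome-wide panel profiling study in which LRRK2 was one of the kinases tested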
# [45] = target: Platelet-derived growth factor receptor alpha (Homo sapiens, UniProt P16234); experiment: Navigating the Kinome. Panel member name: PDGFRA; format: functional
# [46] = target: Serine/threonine-protein kinase TBK1 (Homo sapiens, UniProt Q9UHD2); experiment: Navigating the Kinome. Panel member name: TBK1; format: functional
# [47] = target: Vascular endothelial growth factor receptor 1 (Homo sapiens, UniProt P17948); format: functional;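 also: measured within a kinome-wide profiling panel, FLT1 as the panel member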
# [48] = target: Death-associated protein kinase 3 (Homo sapiens, UniProt O43293); format: functional;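 also: measured as one member of a kinome-wide profiling panel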
# [49] = target: Glycogen synthase kinase-3 alpha (Homo sapiens, UniProt P49840); format: functional;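 also: GSK3A result taken from a broad kinome-wide kinase panel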
# [50] = target: Ribosomal protein S6 kinase alpha-3 (Homo sapiens, UniProt P51812); format: functional;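 also: measured within a kinome-wide profiling panel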
# [51] = target: BDNF/NT-3 growth factors receptor (Homo sapiens, UniProt Q16620); format: functional;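 also: NTRK2 measured as one member of a broad kinome-wide kinase profiling panel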
# [52] = target: G protein-coupled receptor kinase 5 (Homo sapiens, UniProt P34947); experiment: Navigating the Kinome. Panel member name: GPRK5; format: functional
# [53] = target: Mitogen-activated protein kinase 9 (Homo sapiens, UniProt P45984); format: functional;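 also: value from a kinome panel profiling assay, MAPK9 panel entry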
# [54] = target: Protein kinase C theta type (Homo sapiens, UniProt Q04759); experiment: Navigating the Kinome. Panel member name: PRKCQ; format: functional
# [55] = target: cAMP-dependent protein kinase catalytic subunit alpha (Homo sapiens, UniProt P17612); format: functional
# Activin receptor type-1 = Activin receptor type-1 (Homo sapiens, UniProt Q04771); experiment: Navigating the Kinome. Panel member name: ACVR1; format: functional
# [56] = target: Tyrosine-protein kinase receptor TYRO3 (Homo sapiens, UniProt Q06418); format: functional;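 also: TYRO3 value obtained as one member of a kinome-wide profiling panel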
# [57] = target: Insulin-like growth factor 1 receptor (Homo sapiens, UniProt P08069); experiment: Navigating the Kinome. Panel member name: IGF1R; format: functional
# [58] = target: 5'-AMP-activated protein kinase catalytic subunit alpha-1 (Homo sapiens, UniProt Q13131); format: functional
# [59] = target: Lymphokine-activated killer T-cell-originated protein kinase (Homo sapiens, UniProt Q96KB5); format: functional;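 also: value comes from a kinase panel screen in which TOPK was one of the panel members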
# [60] = target: Protein kinase C gamma type (Homo sapiens, UniProt P05129); format: functional
# [61] = target: MAP kinase-activated protein kinase 3 (Homo sapiens, UniProt Q16644); format: functional;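 also: value comes from a kinome-wide profiling panel in which MAPKAPK3 is one of the panel members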
# [62] = target: Protein kinase C zeta type (Homo sapiens, UniProt Q05513); format: functional;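 also: measured as one member of a broad kinase profiling panel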
# [63] = target: Cyclin-dependent kinase 1 (Homo sapiens, UniProt P06493); format: functional;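 also: Kinome-wide panel profiling, with the target listed as panel member CDC2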
# Chain of Cyclin-dependent kinase 1 (P06493 whole entry): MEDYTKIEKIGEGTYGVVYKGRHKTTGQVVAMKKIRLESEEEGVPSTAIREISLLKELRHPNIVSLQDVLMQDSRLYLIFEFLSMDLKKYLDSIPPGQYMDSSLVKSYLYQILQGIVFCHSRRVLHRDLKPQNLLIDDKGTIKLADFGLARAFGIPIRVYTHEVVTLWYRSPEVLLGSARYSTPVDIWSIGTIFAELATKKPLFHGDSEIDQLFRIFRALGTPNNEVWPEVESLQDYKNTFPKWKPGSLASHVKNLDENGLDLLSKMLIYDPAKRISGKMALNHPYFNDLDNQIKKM
# T1 sequence (P0DPI1 2-448 limits assumed): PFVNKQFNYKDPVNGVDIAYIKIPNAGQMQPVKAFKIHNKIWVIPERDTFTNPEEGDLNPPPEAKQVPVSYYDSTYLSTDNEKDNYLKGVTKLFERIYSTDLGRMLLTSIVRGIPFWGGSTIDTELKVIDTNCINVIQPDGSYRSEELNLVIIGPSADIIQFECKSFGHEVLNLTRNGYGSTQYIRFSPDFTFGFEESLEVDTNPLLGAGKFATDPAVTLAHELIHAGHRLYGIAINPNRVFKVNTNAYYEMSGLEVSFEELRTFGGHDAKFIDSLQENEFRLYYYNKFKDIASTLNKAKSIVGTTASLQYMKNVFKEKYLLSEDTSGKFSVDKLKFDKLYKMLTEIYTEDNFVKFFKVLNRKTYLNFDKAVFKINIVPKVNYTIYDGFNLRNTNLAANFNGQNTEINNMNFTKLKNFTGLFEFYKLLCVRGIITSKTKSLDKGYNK
# Chain of Mitogen-activated protein kinase kinase kinase kinase 4 (O95819 whole entry): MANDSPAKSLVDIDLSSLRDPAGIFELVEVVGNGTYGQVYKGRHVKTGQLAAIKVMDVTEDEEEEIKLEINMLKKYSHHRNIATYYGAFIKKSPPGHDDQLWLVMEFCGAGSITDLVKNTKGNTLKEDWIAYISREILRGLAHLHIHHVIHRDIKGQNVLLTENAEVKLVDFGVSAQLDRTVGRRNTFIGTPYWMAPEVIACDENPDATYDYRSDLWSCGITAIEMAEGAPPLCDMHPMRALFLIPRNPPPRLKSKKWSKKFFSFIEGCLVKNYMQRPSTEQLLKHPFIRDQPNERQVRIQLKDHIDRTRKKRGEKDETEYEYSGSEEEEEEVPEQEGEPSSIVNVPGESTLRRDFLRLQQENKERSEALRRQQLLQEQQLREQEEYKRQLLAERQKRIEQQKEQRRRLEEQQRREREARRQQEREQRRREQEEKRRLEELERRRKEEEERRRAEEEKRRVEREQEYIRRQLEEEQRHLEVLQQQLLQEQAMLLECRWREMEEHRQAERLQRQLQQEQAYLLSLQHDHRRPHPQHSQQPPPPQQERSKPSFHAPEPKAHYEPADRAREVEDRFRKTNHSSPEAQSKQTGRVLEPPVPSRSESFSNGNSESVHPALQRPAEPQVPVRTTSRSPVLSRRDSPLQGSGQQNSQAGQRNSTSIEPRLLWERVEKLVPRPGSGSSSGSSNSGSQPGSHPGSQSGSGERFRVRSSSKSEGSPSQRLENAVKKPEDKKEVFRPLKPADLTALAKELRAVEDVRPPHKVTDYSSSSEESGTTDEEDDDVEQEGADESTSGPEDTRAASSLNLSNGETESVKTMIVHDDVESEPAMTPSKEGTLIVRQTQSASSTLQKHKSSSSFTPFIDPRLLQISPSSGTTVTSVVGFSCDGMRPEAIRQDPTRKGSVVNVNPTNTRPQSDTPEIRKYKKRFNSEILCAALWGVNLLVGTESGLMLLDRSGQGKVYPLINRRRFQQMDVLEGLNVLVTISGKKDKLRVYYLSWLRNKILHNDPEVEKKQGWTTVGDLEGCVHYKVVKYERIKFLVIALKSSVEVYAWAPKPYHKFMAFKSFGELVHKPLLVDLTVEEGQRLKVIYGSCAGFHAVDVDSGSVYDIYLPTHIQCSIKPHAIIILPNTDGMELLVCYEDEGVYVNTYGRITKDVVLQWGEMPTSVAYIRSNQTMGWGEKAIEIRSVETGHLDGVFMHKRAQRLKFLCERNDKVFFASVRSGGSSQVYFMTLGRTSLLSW
# Chain of Serine/threonine-protein kinase TAO1 (Q7L7X3 whole entry): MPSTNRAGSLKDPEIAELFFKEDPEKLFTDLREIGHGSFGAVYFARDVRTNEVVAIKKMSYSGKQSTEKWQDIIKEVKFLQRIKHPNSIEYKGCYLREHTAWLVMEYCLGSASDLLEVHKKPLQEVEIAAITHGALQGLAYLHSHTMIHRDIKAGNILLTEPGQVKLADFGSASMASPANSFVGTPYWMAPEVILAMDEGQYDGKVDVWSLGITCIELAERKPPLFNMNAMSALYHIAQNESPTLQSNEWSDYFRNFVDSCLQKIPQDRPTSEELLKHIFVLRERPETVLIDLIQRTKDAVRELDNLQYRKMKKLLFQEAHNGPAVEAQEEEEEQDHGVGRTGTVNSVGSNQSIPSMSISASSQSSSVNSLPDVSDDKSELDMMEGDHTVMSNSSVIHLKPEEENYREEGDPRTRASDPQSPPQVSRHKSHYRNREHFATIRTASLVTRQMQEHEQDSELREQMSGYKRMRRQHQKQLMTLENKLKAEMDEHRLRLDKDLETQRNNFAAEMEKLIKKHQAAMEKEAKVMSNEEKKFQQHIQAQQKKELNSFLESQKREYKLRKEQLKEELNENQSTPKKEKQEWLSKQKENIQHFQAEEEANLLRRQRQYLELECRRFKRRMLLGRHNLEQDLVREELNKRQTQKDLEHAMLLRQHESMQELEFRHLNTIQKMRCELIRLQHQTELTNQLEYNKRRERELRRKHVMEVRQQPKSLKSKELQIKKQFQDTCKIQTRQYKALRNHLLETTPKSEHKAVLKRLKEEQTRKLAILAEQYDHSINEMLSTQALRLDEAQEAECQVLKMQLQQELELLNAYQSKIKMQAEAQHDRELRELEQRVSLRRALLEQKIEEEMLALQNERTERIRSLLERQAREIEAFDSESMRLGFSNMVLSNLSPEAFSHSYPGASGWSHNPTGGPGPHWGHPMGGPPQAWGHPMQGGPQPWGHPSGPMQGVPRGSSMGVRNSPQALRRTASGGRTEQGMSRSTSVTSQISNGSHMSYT
# Chain of Cell division cycle 7-related protein kinase (O00311 whole entry): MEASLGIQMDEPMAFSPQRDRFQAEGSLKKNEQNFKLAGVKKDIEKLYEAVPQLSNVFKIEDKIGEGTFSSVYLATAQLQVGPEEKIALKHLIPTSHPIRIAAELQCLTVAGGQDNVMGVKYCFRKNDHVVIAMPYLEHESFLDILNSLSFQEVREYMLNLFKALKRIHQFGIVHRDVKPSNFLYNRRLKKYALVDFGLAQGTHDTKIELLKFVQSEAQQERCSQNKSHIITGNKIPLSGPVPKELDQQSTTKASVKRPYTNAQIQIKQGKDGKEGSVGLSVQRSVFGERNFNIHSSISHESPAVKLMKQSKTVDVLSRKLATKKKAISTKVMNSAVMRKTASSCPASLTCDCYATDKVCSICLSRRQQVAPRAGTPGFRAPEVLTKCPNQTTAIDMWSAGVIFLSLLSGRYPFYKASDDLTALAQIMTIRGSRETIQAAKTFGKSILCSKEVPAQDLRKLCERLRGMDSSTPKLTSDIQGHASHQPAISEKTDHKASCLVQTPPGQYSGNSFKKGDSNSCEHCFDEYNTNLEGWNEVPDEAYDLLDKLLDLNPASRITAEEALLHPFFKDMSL
# Chain of Tyrosine-protein kinase Fyn (P06241 whole entry): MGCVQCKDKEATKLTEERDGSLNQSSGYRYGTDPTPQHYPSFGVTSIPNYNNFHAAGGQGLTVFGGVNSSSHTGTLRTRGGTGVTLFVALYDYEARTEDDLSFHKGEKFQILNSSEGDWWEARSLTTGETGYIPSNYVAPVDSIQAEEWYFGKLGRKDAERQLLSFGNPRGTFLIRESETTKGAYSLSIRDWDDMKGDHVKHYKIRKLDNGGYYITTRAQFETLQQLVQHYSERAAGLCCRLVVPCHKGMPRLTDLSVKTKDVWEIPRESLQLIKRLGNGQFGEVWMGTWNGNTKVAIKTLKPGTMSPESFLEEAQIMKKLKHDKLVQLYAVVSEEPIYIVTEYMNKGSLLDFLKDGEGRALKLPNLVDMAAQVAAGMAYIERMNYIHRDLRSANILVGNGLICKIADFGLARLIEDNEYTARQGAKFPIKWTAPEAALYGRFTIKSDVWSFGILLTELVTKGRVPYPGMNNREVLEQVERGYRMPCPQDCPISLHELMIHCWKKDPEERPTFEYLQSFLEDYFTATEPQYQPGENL
# Chain of Dual specificity protein kinase CLK4 (Q9HAZ1 whole entry): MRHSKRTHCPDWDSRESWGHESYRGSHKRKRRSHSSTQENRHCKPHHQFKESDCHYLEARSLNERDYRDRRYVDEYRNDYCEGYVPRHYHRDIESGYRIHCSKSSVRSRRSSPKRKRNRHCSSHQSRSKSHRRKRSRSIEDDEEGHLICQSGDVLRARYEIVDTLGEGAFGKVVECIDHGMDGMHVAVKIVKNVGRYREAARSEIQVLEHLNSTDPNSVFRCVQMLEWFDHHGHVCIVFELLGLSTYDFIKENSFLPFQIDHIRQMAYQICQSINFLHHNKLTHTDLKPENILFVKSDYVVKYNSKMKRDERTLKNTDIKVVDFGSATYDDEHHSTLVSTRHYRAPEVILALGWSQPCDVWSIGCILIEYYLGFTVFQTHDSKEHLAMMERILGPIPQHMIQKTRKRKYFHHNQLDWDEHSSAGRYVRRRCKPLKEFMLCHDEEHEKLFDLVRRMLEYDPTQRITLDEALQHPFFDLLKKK
compound,measurement,setting,value
Oc1ccc(Nc2nc(-c3ccc(Cl)cc3)cs2)cc1,Ki,[1],3160 nM (active)
same,Ki,Misshapen-like kinase 1,2510 nM (active)
same,Ki,[2],1000 nM (active)
same,Ki,[3],7940 nM (active)
same,AC50,Cytochrome P450 3A4,25100 nM (inconclusive)
O=C(Nc1ccc2nc(-c3cccs3)c(-c3cccs3)nc2c1)NC1CC1,EC50,[4],1500 nM (active)
same,EC50,[5],12300 nM (active)
same,EC50,Lethal factor,1600 nM (active)
same,EC50,[6],600 nM (active)
Cn1ncc2cc(Nc3ccnc(N)n3)ccc21,Ki,[7],> 100000 nM (inactive)
same,Ki,[8],398 nM (active)
CC(C)Oc1cc(Nc2nc(NC(C)c3ccc(F)cn3)ncc2Cl)n[nH]1 (stereo not given),Ki,[9],> 2510 nM (inactive)
same,Ki,[10],> 2510 nM (inactive)
same,Ki,[11],> 2510 nM (inactive)
same,Ki,[12],100 nM (active)
same,Ki,[13],126 nM (active)
same,Ki,[14],316 nM (active)
same,Ki,[15],> 3980 nM (inactive)
same,Ki,[16],1000 nM (active)
same,Ki,[17],316 nM (active)
same,Ki,[18],> 3980 nM (inactive)
same,Ki,[19],398 nM (active)
same,Ki,[20],> 5010 nM (inactive)
same,Ki,[21],> 3160 nM (inactive)
same,Ki,[22],> 3160 nM (inactive)
same,Ki,[23],398 nM (active)
same,Ki,[24],501 nM (active)
same,Ki,Activated CDC42 kinase 1,25.1 nM (active)
same,Ki,[25],2000 nM (active)
same,Ki,[26],316 nM (active)
same,Ki,[27],> 2000 nM (inactive)
same,Ki,[28],200 nM (active)
same,Ki,[29],> 3160 nM (inactive)
same,Ki,[30],> 5010 nM (inactive)
same,Ki,Focal adhesion kinase 1,31.6 nM (active)
same,Ki,[31],31.6 nM (active)
same,Ki,[32],25.1 nM (active)
same,Ki,[33],> 3980 nM (inactive)
same,Ki,[34],1000 nM (active)
same,Ki,[35],39.8 nM (active)
same,Ki,[36],2510 nM (active)
same,Ki,[37],> 3980 nM (inactive)
same,Ki,[38],501 nM (active)
same,Ki,[39],> 6310 nM (inactive)
same,Ki,[40],2000 nM (active)
same,Ki,[41],> 3980 nM (inactive)
same,Ki,[42],2510 nM (active)
same,Ki,[2],> 5010 nM (inactive)
same,Ki,[43],> 2510 nM (inactive)
same,Ki,[44],1000 nM (active)
same,Ki,[45],> 2510 nM (inactive)
same,Ki,[46],> 3160 nM (inactive)
same,Ki,[47],1580 nM (active)
same,Ki,[48],> 5010 nM (inactive)
same,Ki,[49],> 3980 nM (inactive)
same,Ki,[50],> 3980 nM (inactive)
same,Ki,[51],1 nM (active)
same,Ki,[52],> 3980 nM (inactive)
same,Ki,[53],> 3980 nM (inactive)
same,Ki,[54],501 nM (active)
same,Ki,[55],> 1260 nM (inactive)
same,Ki,Activin receptor type-1,1580 nM (active)
same,Ki,[56],> 3160 nM (inactive)
same,Ki,[57],1260 nM (active)
same,Ki,[58],158 nM (active)
Oc1cccc(-c2nc(N3CCOCC3)c3oc4ncccc4c3n2)c1 [PI-103],Ki,[59],> 10000 nM (inactive)
same,Ki,[60],> 7940 nM (inactive)
same,Ki,[61],> 10000 nM (inactive)
same,Ki,[62],> 7940 nM (inactive)
same,Ki,[63],> 7940 nM (inactive)
